{"source": "patent US3933838A", "about": "“5-Substituted 2-amino-4-arylthiazoles” (Instituto Luso Farmaco d'Italia S.r.l., priority 1972, dated 1976)", "key": {"guinea pigs": {"system": "guinea pigs", "assay": "anti-cough action in guinea pigs made to inhale 4% ammonia", "format": "in vivo", "settings": "intraperitoneal", "text": "(§1) The analgesic action has been assessed in rats (Arch. int. Pharmacodyn. 1957, 111 : 409) and in mice (Boll. Chim. Farm. 1968, 107 : 29), the antipyretic action in rats (J. Pharmacol. exp. Ther. 1963, 141 : 369); and the anti-cough action in guinea pigs made to inhale 4% ammonia.\n(§2) Whenever possible the ED50 values have been calculated."}, "mice [1]": {"system": "mice", "assay": "analgesic action, tail clip, mice", "format": "in vivo", "settings": "oral", "text": "as §1, §2"}, "LD50 mice": {"assay": "LD50 mice", "settings": "mouse, in vivo"}, "adult rats [2]": {"system": "adult rats", "assay": "anti-inflammatory action, carragenin oedema test in rats", "format": "in vivo", "settings": "for ED50: Rattus norvegicus, read-out: anti-inflammatory action rats ED50, carrageenin oedema", "text": "(§3) The anti-inflammatory action has been studied in adult rats by using the carragenin oedema test (Proc. Soc. exp. Biol. Med. 1962, 111 : 544) and the granuloma from an extraneous substance (J. Amer. Pharm. Ass., Sci. Ed. 1957, 46 : 515).\nas §2"}, "rats [3]": {"system": "rats", "assay": "analgesic action, Randall Selitto, rats", "format": "in vivo", "settings": "oral; for ED50: Rattus norvegicus", "text": "as §1, §2"}, "rats [4]": {"system": "rats", "assay": "antipyretic action in rats", "format": "in vivo", "settings": "oral", "text": "as §1, §2"}, "rats [5]": {"system": "rats", "assay": "LD50 rats", "format": "in vivo", "settings": "oral"}, "LD50 rats": {"assay": "LD50 rats", "format": "in vivo", "settings": "rat, in vivo"}, "mice [6]": {"system": "mice", "assay": "analgesic action, stretching acetic acid, mice", "format": "in vivo", "settings": "oral; for ED50: Mus musculus", "text": "as §1, §2"}, "adult rats [7]": {"system": "adult rats", "assay": "anti-inflammatory action, granuloma from an extraneous substance in rats", "format": "in vivo", "settings": "Rattus norvegicus, 168 h; oral × 7 days", "text": "as §3, §2"}, "rats [8]": {"system": "rats", "assay": "anti-ulcer action in rats kept without food for 24 hours and motionless for 4 hours", "format": "in vivo", "settings": "10 mg/kg intraperitoneal", "method": "The anti-ulcer property has been studied in rats kept without food for 24 hours and motionless for 4 hours (Therapie 1960, 15 : 1096)."}, "[9]": {"settings": "intraperitoneal, 200 mg/kg maximum dose"}}, "data": [{"molecule": "O=C(O)Cc1sc(Nc2ccccc2)nc1-c1ccc(Cl)cc1", "note": "[LR 330, (2-phenylamino-4-p-chlorophenyl-thiazol-5-yl)-acetic acid]", "values": [{"measurement": "anti-coughing action, effect at maximum dose administered", "setting": "guinea pigs; 200 mg/kg maximum dose", "value": ".phi."}, {"measurement": "tail clip, effect at maximum dose administered", "setting": "mice [1]; 200 mg/kg maximum dose", "value": ".phi."}, {"measurement": "LD50", "setting": "LD50 mice; ip, intraperitoneal", "value": "> 1000", "unit": "mg/kg"}, {"measurement": "LD50", "setting": "LD50 mice; oral", "value": "> 3000", "unit": "mg/kg"}, {"measurement": "ED50", "setting": "adult rats [2]; ip, intraperitoneal", "value": 75, "unit": "mg/kg"}, {"measurement": "ED50", "setting": "adult rats [2]; oral", "value": 400, "unit": "mg/kg"}, {"measurement": "ED50", "setting": "rats [3]", "value": 200, "unit": "mg/kg"}, {"measurement": "anti-pyretic action, effect at maximum dose administered", "setting": "rats [4]; 200 mg/kg maximum dose", "value": ".phi."}, {"measurement": "LD50", "setting": "rats [5]", "value": "> 3000", "unit": "mg/kg"}, {"measurement": "LD50", "setting": "LD50 rats; ip, intraperitoneal", "value": "> 1000", "unit": "mg/kg"}, {"measurement": "LD50", "setting": "LD50 rats; po", "value": "> 2000", "unit": "mg/kg"}, {"measurement": "ED50", "setting": "mice [6]", "value": 75, "unit": "mg/kg"}, {"measurement": "ED50", "setting": "adult rats [7]", "value": 400, "unit": "mg/kg"}]}, {"molecule": "Nc1nc(-c2ccc(Cl)cc2)c(CC(=O)O)s1", "note": "[LR 331, (2-amino-4-p-chlorophenyl-thiazol-5-yl)-acetic acid]", "values": [{"measurement": "anti-ulcer action, protected rats in %", "setting": "rats [8]", "value": 30, "unit": "%"}, {"measurement": "anti-ulcer action, reduction in number of ulcers in %", "setting": "rats [8]", "value": 52, "unit": "%"}, {"measurement": "anti-coughing action, effect at maximum dose administered", "setting": "guinea pigs; 50 mg/kg maximum dose", "value": 17, "unit": "%"}, {"measurement": "tail clip, effect at maximum dose administered", "setting": "mice [1]; 175 mg/kg maximum dose", "value": ".phi."}, {"measurement": "LD50", "setting": "LD50 mice; ip, intraperitoneal", "value": 800, "unit": "mg/kg"}, {"measurement": "LD50", "setting": "LD50 mice; oral", "value": "> 5000", "unit": "mg/kg"}, {"measurement": "ED50", "setting": "adult rats [2]; ip, intraperitoneal", "value": 140, "unit": "mg/kg"}, {"measurement": "ED50", "setting": "adult rats [2]; oral", "value": 300, "unit": "mg/kg"}, {"measurement": "Randall Selitto, effect at maximum dose administered", "setting": "rats [3]; 175 mg/kg maximum dose", "value": 15, "unit": "%"}, {"measurement": "anti-pyretic action, effect at maximum dose administered", "setting": "rats [4]; 400 mg/kg maximum dose", "value": ".phi."}, {"measurement": "LD50", "setting": "LD50 rats; ip, intraperitoneal", "value": 840, "unit": "mg/kg"}, {"measurement": "LD50", "setting": "LD50 rats; po", "value": "> 1000", "unit": "mg/kg"}, {"measurement": "ED50", "setting": "mice [6]", "value": 132, "unit": "mg/kg"}, {"measurement": "ED50", "setting": "adult rats [7]", "value": 300, "unit": "mg/kg"}]}, {"molecule": "O=C(O)Cc1sc(NC(=O)Nc2ccccc2)nc1-c1ccc(Cl)cc1", "note": "[LR 364, [2-(phenylamino-carbonylamino)-4-p-chlorophenyl-thiazol-5-yl]-acetic acid]", "values": [{"measurement": "anti-ulcer action, protected rats in %", "setting": "rats [8]", "value": 30, "unit": "%"}, {"measurement": "anti-ulcer action, reduction in number of ulcers in %", "setting": "rats [8]", "value": 59, "unit": "%"}, {"measurement": "anti-coughing action, effect at maximum dose administered", "setting": "guinea pigs; 200 mg/kg maximum dose", "value": ".phi."}, {"measurement": "tail clip, effect at maximum dose administered", "setting": "mice [1]; 200 mg/kg maximum dose", "value": ".phi."}, {"measurement": "LD50", "setting": "LD50 mice; ip, intraperitoneal", "value": "> 1000", "unit": "mg/kg"}, {"measurement": "carrageenin oedema, effect at maximum dose administered", "setting": "adult rats [2]; [9]", "value": ".phi."}, {"measurement": "stretching acetic acid, effect at maximum dose administered", "setting": "mice [6]; 200 mg/kg maximum dose", "value": 31, "unit": "%"}]}, {"molecule": "O=C(O)Cc1sc(Nc2c(Cl)cccc2Cl)nc1-c1ccccc1", "note": "[LR 396, [2-n-(2', 6'-dichlorophenyl)-amino-4-phenyl-thiazol-5-yl]-acetic acid]", "values": [{"measurement": "anti-ulcer action, protected rats in %", "setting": "rats [8]", "value": 40, "unit": "%"}, {"measurement": "anti-ulcer action, reduction in number of ulcers in %", "setting": "rats [8]", "value": 45, "unit": "%"}, {"measurement": "LD50", "setting": "LD50 mice; ip, intraperitoneal", "value": "> 1000", "unit": "mg/kg"}, {"measurement": "carrageenin oedema, effect at maximum dose administered", "setting": "adult rats [2]; [9]", "value": ".phi."}, {"measurement": "stretching acetic acid, effect at maximum dose administered", "setting": "mice [6]; 100 mg/kg maximum dose", "value": 26, "unit": "%"}]}, {"molecule": "CCN(CC)c1nc(-c2ccc(Cl)cc2)c(CC(=O)O)s1", "note": "[LR 407, (2-n,n-diethylamino-4-p-chlorophenyl-thiazol-5-yl)-acetic acid]", "values": [{"measurement": "anti-ulcer action, reduction in number of ulcers in %", "setting": "rats [8]", "value": 23, "unit": "%"}, {"measurement": "ED50", "setting": "guinea pigs; Cavia porcellus, ip, read-out: anti-coughing action guinea pigs ED50", "value": 34, "unit": "mg/kg"}, {"measurement": "ED50", "setting": "mice [1]; Mus musculus", "value": 48, "unit": "mg/kg"}, {"measurement": "LD50", "setting": "LD50 mice; ip, intraperitoneal", "value": 400, "unit": "mg/kg"}, {"measurement": "LD50", "setting": "LD50 mice; oral", "value": 1260, "unit": "mg/kg"}, {"measurement": "ED50", "setting": "adult rats [2]; ip, intraperitoneal", "value": 60, "unit": "mg/kg"}, {"measurement": "ED50", "setting": "adult rats [2]; oral", "value": 120, "unit": "mg/kg"}, {"measurement": "ED50", "setting": "rats [3]", "value": "> 400", "unit": "mg/kg"}, {"measurement": "ED50", "setting": "rats [4]; Rattus norvegicus, read-out: anti-pyretic action rats ED50", "value": 73, "unit": "mg/kg"}, {"measurement": "LD50", "setting": "LD50 rats; ip, intraperitoneal", "value": 385, "unit": "mg/kg"}, {"measurement": "LD50", "setting": "LD50 rats; po", "value": "> 1500", "unit": "mg/kg"}, {"measurement": "ED50", "setting": "mice [6]", "value": 26, "unit": "mg/kg"}, {"measurement": "ED50", "setting": "adult rats [7]", "value": 170, "unit": "mg/kg"}]}, {"molecule": "CCN(CC)CCNC(=O)Cc1sc(N)nc1-c1ccc(Cl)cc1", "note": "[LR 450, (2-amino-4-p-chlorophenyl-thiazol-5-yl)-N-(N',N' diethylaminoethyl)-acetamide]", "values": [{"measurement": "anti-ulcer action, protected rats in %", "setting": "rats [8]", "value": 65, "unit": "%"}, {"measurement": "anti-ulcer action, reduction in number of ulcers in %", "setting": "rats [8]", "value": 69, "unit": "%"}, {"measurement": "anti-coughing action, effect at maximum dose administered", "setting": "guinea pigs; 12 mg/kg maximum dose", "value": ".phi."}, {"measurement": "tail clip, effect at maximum dose administered", "setting": "mice [1]; 50 mg/kg maximum dose", "value": ".phi."}, {"measurement": "LD50", "setting": "LD50 mice; ip, intraperitoneal", "value": 43, "unit": "mg/kg"}, {"measurement": "LD50", "setting": "LD50 mice; oral", "value": 238, "unit": "mg/kg"}, {"measurement": "carrageenin oedema, effect at maximum dose administered", "setting": "adult rats [2]; intraperitoneal, 6 mg/kg maximum dose", "value": 36, "unit": "%"}, {"measurement": "carrageenin oedema, effect at maximum dose administered", "setting": "adult rats [2]; oral, 100 mg/kg maximum dose", "value": 35, "unit": "%"}, {"measurement": "Randall Selitto, effect at maximum dose administered", "setting": "rats [3]; 100 mg/kg maximum dose", "value": 18, "unit": "%"}, {"measurement": "anti-pyretic action, effect at maximum dose administered", "setting": "rats [4]; 100 mg/kg maximum dose", "value": 38, "unit": "%"}, {"measurement": "LD50", "setting": "LD50 rats; ip, intraperitoneal", "value": 47, "unit": "mg/kg"}, {"measurement": "LD50", "setting": "LD50 rats; po", "value": 915, "unit": "mg/kg"}, {"measurement": "stretching acetic acid, effect at maximum dose administered", "setting": "mice [6]; 100 mg/kg maximum dose", "value": 27, "unit": "%"}, {"measurement": "ED50", "setting": "adult rats [7]", "value": 100, "unit": "mg/kg"}]}]}
